Data taken from US10421718B2, “EBNA1 inhibitors and their method of use” (priority 2013, dated 2019).

Target: T1, His-EBNA1 (DNA binding domain of EBNA1, amino acids 459-607) (Epstein-Barr virus, UniProt P03211)
T1 construct: made in house; host or cells: E. coli
Assay: Inhibition of 5′-biotin-oPL4624 binding to His-EBNA1 using Alpha Screen technology
Conditions: Alpha Screen Activity (IC50, inhibition of 5′-biotin-oPL4624 binding to His-EBNA1), 15 nM His-EBNA1, 0.2 nM bt-oPL4624, 2 hr room temperature
Description: Inhibition of 5′-biotin-oPL4624 binding to His-EBNA1 using Alpha Screen technology: Assays were performed using the DNA binding domain of EBNA1 (amino acids 459-607), which was His-tagged (His-EBNA1) and the self-complementary biotinylated (bt) oligonucleotide with the sequence 5′-bt-[…]-ATGCTACCC-3′ (bt-oPL4624). The protein was expressed in E. coli and purified according to Barwell, et al. (Barwell J A, Bochkarev A, Pfuetzner R A, Tong H, Yang D S, Frappier L, Edwards A M. (1995) Overexpression, purification, and crystallization of the DNA binding and dimerization domains of the Epstein-Barr virus nuclear antigen 1. J Biol Chem. 270: 20556-9.). The bt-oPL4624 oligonucleotide was purchased from Integrated DNA Technologies, Inc (IDT). AlphaScreen donor, acceptor beads and white, opaque 384-well assay plates were purchased from PerkinElmer, Inc.
Assays contained 15 nM His-EBNA1, 0.2 nM bt-oPL4624, 5 μg/mL AlphaScreen streptavidin donor beads and nickel chelate acceptor beads, and a series of concentrations of test compound ranging from 3.2 nM to 100 μM in a total volume of 40 μL assay buffer (25 mM Tris, pH 7.2, 160 mM NaCl, 1 mM MgCl2). His-EBNA1 (30 nM) and bt-oPL4624 (0.4 nM) were preincubated with 10 μg/mL nickel chelate AlphaScreen acceptor bead, or 10 μg/mL streptavidin AlphaScreen donor bead, respectively, for 30 minutes at room temperature in assay buffer. Twenty microliters of His-EBNA1/acceptor bead mix and bt-oPL4624/donor bead mix were transferred to assay plates containing […] of 1:3 serial dilutions of test compounds previously prepared in DMSO at concentrations ranging from 0.32 μM to 10 mM. Nonspecific binding was determined with 5 μg/mL AlphaScreen acceptor bead in the absence of His-EBNA1. After 2 hr incubation at room temperature, the AlphaScreen signal was measured on the Envision plate reader (PerkinElmer, Inc.) at 680 nm excitation and 570 nm emission. Inhibition values at each concentration of test compound were determined by setting 100% equal to raw data values in the absence of EBNA1 and 0% equal to the raw data values in the presence of EBNA1. Nonlinear regression fits of the inhibition values to a one-site dose-response equation were performed using GraphPad Prism.

T1 sequence (P03211 459-607): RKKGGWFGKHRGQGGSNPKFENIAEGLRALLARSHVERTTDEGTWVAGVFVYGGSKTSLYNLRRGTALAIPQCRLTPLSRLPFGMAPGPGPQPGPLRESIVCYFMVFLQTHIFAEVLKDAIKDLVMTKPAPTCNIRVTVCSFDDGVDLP

Compound | IC50
CNS(=O)(=O)c1cccc(C#Cc2cccc(C(=O)O)c2-n2cccc2)c1 [Entry 1, 3-(3-methylsulfamoyl-phenylethynyl)-2-pyrrol-1-yl-benzoic acid] | 1 to 10 µM
O=C(O)c1cccc(C#Cc2c[nH]c3ccccc23)c1-n1cccc1 [Entry 2, 3-(1H-indol-3-ylethynyl)-2-pyrrol-1-yl-benzoic acid] | < 1 µM
CS(=O)(=O)Nc1cccc(C#Cc2cccc(C(=O)O)c2-n2cccc2)c1 [Entry 3, 3-[2-(3-methanesulfonamidophenyl)ethynyl]-2-(1H-pyrrol-1-yl)benzoic acid] | < 1 µM
NS(=O)(=O)c1cccc(C#Cc2cccc(C(=O)O)c2-n2cccc2)c1 [Entry 4, 2-(1H-pyrrol-1-yl)-3-[2-(3-sulfamoylphenyl)ethynyl]benzoic acid] | < 1 µM
NC(=O)c1cccc(C#Cc2cccc(C(=O)O)c2-n2cccc2)c1 [Entry 5, 3-[2-(3-carbamoylphenyl)ethynyl]-2-(1H-pyrrol-1-yl)benzoic acid] | < 1 µM
O=C(O)c1cccc(C#Cc2ccc3nccn3c2)c1-n1cccc1 [Entry 6, 3-(2-{imidazo[1,2-a]pyridin-6-yl}ethynyl)-2-(1H-pyrrol-1-yl)benzoic acid] | 10 to 100 µM
O=C(O)c1cccc(C#Cc2ccnc(O)c2)c1-n1cccc1 [Entry 7, 3-[2-(2-hydroxypyridin-4-yl)ethynyl]-2-(1H-pyrrol-1-yl)benzoic acid] | 10 to 100 µM
O=C(O)c1cccc(C#Cc2ccc3cn[nH]c3c2)c1-n1cccc1 [Entry 8, 3-[2-(1H-indazol-6-yl)ethynyl]-2-(1H-pyrrol-1-yl)benzoic acid] | 1 to 10 µM
CC1(C)CN(c2cccc(C#Cc3cccc(C(=O)O)c3-n3cccc3)c2)C1=O [Entry 9, 3-{2-[3-(3,3-dimethyl-2-oxoazetidin-1-yl)phenyl]ethynyl}-2-(1H-pyrrol-1-yl)benzoic acid] | < 1 µM
CC(C)(CNc1cccc(C#Cc2cccc(C(=O)O)c2-n2cccc2)c1)C(=O)O [Entry 10, 3-(2-{3-[(2-carboxy-2,2-dimethylethyl)amino]phenyl}ethynyl)-2-(1H-pyrrol-1-yl)benzoic acid] | 1 to 10 µM
O=C(O)c1cccc(C#Cc2cnc3cnccn23)c1-n1cccc1 [Entry 11, 3-(2-{imidazo[1,2-a]pyrazin-3-yl}ethynyl)-2-(1H-pyrrol-1-yl)benzoic acid] | < 1 µM
O=C(O)c1cccc(C#Cc2cnc3ccccn23)c1-n1cccc1 [Entry 12, 3-(2-{imidazo[1,2-a]pyridin-3-yl}ethynyl)-2-(1H-pyrrol-1-yl)benzoic acid] | < 1 µM
O=C(O)c1cccc(C#Cc2cccc3nccn23)c1-n1cccc1 [Entry 13, 3-(2-{imidazo[1,2-a]pyridin-5-yl}ethynyl)-2-(1H-pyrrol-1-yl)benzoic acid] | 10 to 100 µM
O=C(O)c1cccc(C#Cc2cnc3[nH]ccc3c2)c1-n1cccc1 [Entry 14, 2-(1H-pyrrol-1-yl)-3-(2-{1H-pyrrolo[2,3-b]pyridin-5-yl}ethynyl)benzoic acid] | 1 to 10 µM
Cn1ccc2c(C#Cc3cccc(C(=O)O)c3-n3cccc3)cccc21 [Entry 15, 3-[2-(1-methyl-1H-indol-4-yl)ethynyl]-2-(1H-pyrrol-1-yl)benzoic acid] | < 1 µM
Cn1ccc2cc(C#Cc3cccc(C(=O)O)c3-n3cccc3)ccc21 [Entry 16, 3-[2-(1-methyl-1H-indol-5-yl)ethynyl]-2-(1H-pyrrol-1-yl)benzoic acid] | < 1 µM
O=C(O)c1cccc(C#Cc2ccc3ccsc3c2)c1-n1cccc1 [Entry 17, 3-[2-(1-benzothiophen-6-yl)ethynyl]-2-(1H-pyrrol-1-yl)benzoic acid] | 1 to 10 µM
O=C(O)c1cccc(C#Cc2cccc3cc[nH]c23)c1-n1cccc1 [Entry 18, 3-[2-(1H-indol-7-yl)ethynyl]-2-(1H-pyrrol-1-yl)benzoic acid] | < 1 µM
O=C(O)c1cccc(C#Cc2ccccc2CO)c1-n1cccc1 [Entry 19, 3-{2-[2-(hydroxymethyl)phenyl]ethynyl}-2-(1H-pyrrol-1-yl)benzoic acid] | < 1 µM
O=C(O)c1cccc(C#Cc2ccc(CO)cc2)c1-n1cccc1 [Entry 20, 3-{2-[4-(hydroxymethyl)phenyl]ethynyl}-2-(1H-pyrrol-1-yl)benzoic acid] | < 1 µM

Compound | IC50
Cc1ccc(C#Cc2cccc(C(=O)O)c2-n2c(C)ccc2C)cc1 [Entry 21, 2-(2,5-dimethyl-1H-pyrrol-1-yl)-3-[2-(4-methylphenyl)ethynyl]benzoic acid] | < 1 µM
Cc1ccc(C)n1-c1c(C#Cc2cccc(O)c2)cccc1C(=O)O [Entry 22, 2-(2,5-dimethyl-1H-pyrrol-1-yl)-3-[2-(3-hydroxyphenyl)ethynyl]benzoic acid] | < 1 µM
O=C(O)c1cccc(C#Cc2ccc3c(c2)NCC3)c1-n1cccc1 [Entry 23, 3-[2-(2,3-dihydro-1H-indol-6-yl)ethynyl]-2-(1H-pyrrol-1-yl)benzoic acid] | < 1 µM
Cn1cc(C#Cc2cccc(C(=O)O)c2-n2cccc2)cn1 [Entry 24, 3-[2-(1-methyl-1H-pyrazol-4-yl)ethynyl]-2-(1H-pyrrol-1-yl)benzoic acid] | 1 to 10 µM
Cc1nc(C#Cc2cccc(C(=O)O)c2-n2cccc2)cn1C [Entry 25, 3-[2-(1,2-dimethyl-1H-imidazol-4-yl)ethynyl]-2-(1H-pyrrol-1-yl)benzoic acid] | 10 to 100 µM
Cn1cncc1C#Cc1cccc(C(=O)O)c1-n1cccc1 [Entry 26, 3-[2-(1-methyl-1H-imidazol-5-yl)ethynyl]-2-(1H-pyrrol-1-yl)benzoic acid] | 10 to 100 µM
Cn1ccnc1C#Cc1cccc(C(=O)O)c1-n1cccc1 [Entry 27, 3-[2-(1-methyl-1H-imidazol-2-yl)ethynyl]-2-(1H-pyrrol-1-yl)benzoic acid] | 10 to 100 µM
O=C(O)c1cccc(C#Cc2cncs2)c1-n1cccc1 [Entry 28, 2-(1H-pyrrol-1-yl)-3-[2-(1,3-thiazol-5-yl)ethynyl]benzoic acid] | 10 to 100 µM
O=C(O)c1cccc(C#Cc2cscn2)c1-n1cccc1 [Entry 29, 2-(1H-pyrrol-1-yl)-3-[2-(1,3-thiazol-4-yl)ethynyl]benzoic acid] | < 1 µM
O=C(O)c1cccc(C#Cc2ccc3cc[nH]c3n2)c1-n1cccc1 [Entry 30, 2-(1H-pyrrol-1-yl)-3-(2-{1H-pyrrolo[2,3-b]pyridin-6-yl}ethynyl)benzoic acid] | 1 to 10 µM
CC(C)(O)c1cccc(C#Cc2cccc(C(=O)O)c2-n2cccc2)c1 [Entry 31, 3-{2-[3-(2-hydroxypropan-2-yl)phenyl]ethynyl}-2-(1H-pyrrol-1-yl)benzoic acid] | 1 to 10 µM
CC(C)C(O)C#Cc1cccc(C(=O)O)c1-n1cccc1 (stereo not shown) [Entry 32, 3-(3-hydroxy-4-methylpent-1-yn-1-yl)-2-(1H-pyrrol-1-yl)benzoic acid] | 1 to 10 µM
O=C(O)c1cccc(C#CC(O)c2ccccc2)c1-n1cccc1 (stereo not shown) [Entry 33, 3-(3-hydroxy-3-phenylprop-1-yn-1-yl)-2-(1H-pyrrol-1-yl)benzoic acid] | < 1 µM
O=C(O)c1cccc(C#Cc2c[nH]c3ncccc23)c1-n1cccc1 [Entry 34, 2-(1H-pyrrol-1-yl)-3-(2-{1H-pyrrolo[2,3-b]pyridin-3-yl}ethynyl)benzoic acid] | < 1 µM
O=C(O)c1cccc(C#Cc2cccc3[nH]ccc23)c1-n1cccc1 [Entry 35, 3-[2-(1H-indol-4-yl)ethynyl]-2-(1H-pyrrol-1-yl)benzoic acid] | < 1 µM
O=C(O)c1cccc(C#Cc2ccn3ncnc3c2)c1-n1cccc1 [Entry 36, 2-(1H-pyrrol-1-yl)-3-(2-{[1,2,4]triazolo[1,5-a]pyridin-7-yl}ethynyl)benzoic acid] | < 1 µM
CN(C)S(=O)(=O)c1cccc(C#Cc2cccc(C(=O)O)c2-n2cccc2)c1 [Entry 37, 3-{2-[3-(dimethylsulfamoyl)phenyl]ethynyl}-2-(1H-pyrrol-1-yl)benzoic acid] | < 1 µM
O=C(O)c1cccc(C#Cc2cc(O)cc(F)c2)c1-n1cccc1 [Entry 38, 3-[2-(3-fluoro-5-hydroxyphenyl)ethynyl]-2-(1H-pyrrol-1-yl)benzoic acid] | < 1 µM
O=C(O)c1cccc(C#Cc2cccc(CO)c2)c1-n1cccc1 [Entry 39, 3-{2-[3-(hydroxymethyl)phenyl]ethynyl}-2-(1H-pyrrol-1-yl)benzoic acid] | < 1 µM
O=C(O)c1cccc(C#Cc2cncc(O)c2)c1-n1cccc1 [Entry 40, 3-[2-(5-hydroxypyridin-3-yl)ethynyl]-2-(1H-pyrrol-1-yl)benzoic acid] | 10 to 100 µM
